From patent US9340532B2, “Methods and compositions for inhibiting CNKSR1” (PHUSIS THERAPEUTICS, INC., priority 2012, dated 2016) come the findings set out here.

Where only a bound is given, the exact number is not on record here.

A word on the IC50: it is the concentration needed to halve the response being measured. High values mean a need for much substance, low ones inhibition by little substance.

One experiment concerns the target T1, CNK1 PH-domain (CNKSR1) (Homo sapiens, UniProt Q969H4).
T1 construct: The PH-domain His-fusion proteins (CNK1 and AKT1) were expressed and immobilized on a NTA chip; made in house
T1 sequence (Q969H4 403-502 limits assumed): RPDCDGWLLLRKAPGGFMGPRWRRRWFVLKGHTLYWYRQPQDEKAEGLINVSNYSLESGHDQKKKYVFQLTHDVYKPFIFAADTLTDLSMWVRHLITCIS
Briefly: SPR binding assay (Biacore T100), CNK1 PH-domain. To be noted: date 12 09 13. As for the experimental part:
(§1) All interaction analyses were done with a Biacore T100 Control Software v3.2, and BIAevaluation v4.1 analysis software (Biacore). The PH-domain His-fusion proteins (CNK1 and AKT1) were expressed and immobilized on a NTA chip to a level of 10,000 response units or less. Small molecule analytes at concentrations ranging from 50 μM to 0.010 μM were injected at a high flow rate (30 μL/min) DMSO concentrations in all samples and running buffer were 1-5% (v/v).
Other docking was performed using modeling algorithms with state-of-the-art commercial drug discovery software (Schrodinger suite). […] Additionally, ligand-based approaches provided an alternative to structure based drug discovery. Ligand-based virtual screening methodologies can take into account shape and electrostatics (like ROCS) and the pharmacophoric features (acceptor, donor, hydrophobic, aromatic, etc.) of its functional groups. […] SPR interaction analyses of all other compounds was undertaken using a Biacore T100 with Control and Evaluation software kit.
In general terms: Surface plasmon resonance follows binding to a sensor surface in real time, without labels.
With `O=C(O)CCc1cc(NS(=O)(=O)c2cccs2)c2c(c1O)OCO2` [Compound 90, 3-(4-hydroxy-7-(thiophene-2-sulfonamido)benzo[d][1,3]dioxol-5-yl)propanoic acid], the “Surface Plasmon Resonance CNKSR1 binding (RU max)” value is recorded as −7.809 RU * 100/Da and the “Surface Plasmon Resonance CNKSR1 stability (RU max post-injection)” value is −3.766 RU * 100/Da.
Turning to `Cc1ccc(-c2csc(Cn3nc(C4OC5CCOC54)c4ccccc4c3=O)n2)cc1` (stereo not drawn) [Compound 124], the “Surface Plasmon Resonance CNKSR1 binding (RU max)” value is recorded as −0.369 RU * 100/Da and the “Surface Plasmon Resonance CNKSR1 stability (RU max post-injection)” value is recorded as −0.053 RU * 100/Da.
On the same counts, the results for `Cc1ccc(-c2csc(Cn3nc(CC(O)C[N+](=O)[O-])c4ccccc4c3=O)n2)cc1` (stereo not drawn) [Compound 125] are −0.380 RU * 100/Da and −0.127 RU * 100/Da.
The like results for `Cc1ccc(-c2csc(Cn3nc(CC(O)CN)c4ccccc4c3=O)n2)cc1` (stereo not drawn) [Compound 126] were, in that order, −0.166 RU * 100/Da and −0.031 RU * 100/Da.
On the same counts, the results for `Cc1ccc(-c2csc(Cn3nc(CC(=O)NS(C)(=O)=O)c4ccccc4c3=O)n2)cc1` [Compound 127] are 3.050 RU * 100/Da and 2.868 RU * 100/Da.

For a further experiment, the target named is T2, AKT1 PH-domain (Homo sapiens, UniProt P31749).
T2 construct: The PH-domain His-fusion proteins (CNK1 and AKT1) were expressed and immobilized on a NTA chip; made in house
T2 sequence (P31749 5-108 limits assumed): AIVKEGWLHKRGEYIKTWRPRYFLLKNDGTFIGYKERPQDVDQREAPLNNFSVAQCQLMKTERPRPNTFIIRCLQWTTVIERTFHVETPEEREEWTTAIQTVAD
As to the kind of experiment: SPR binding assay (Biacore T100), AKT1 PH-domain. To be noted: Table 7, curated diversity set. As for the experimental part: as §1
A commercially available docking package, GOLD (GOLD [3.2], CCDC: Cambridge, UK, 2007) was used to evaluate the docking of compounds 1-7 into the binding pocket, see e.g. Table 5. Other docking was performed using modeling algorithms with state-of-the-art commercial drug discovery software (Schrodinger suite). GLIDE was chosen as the docking algorithm used to select and optimize compounds, providing a GlideScore as a rough estimate of binding affinity that was used to rank and select the best compounds. Additionally, ligand-based approaches provided an alternative to structure based drug discovery. Ligand-based virtual screening methodologies can take into account shape and electrostatics (like ROCS) and the pharmacophoric features (acceptor, donor, hydrophobic, aromatic, etc.) of its functional groups. Inositol tetraphosphate (IP4) binding to the PH-domain of CNKSR1 provided a good starting point for shape screening. Both structure-based and ligand-based approaches were used to find novel compounds (Table 7) and to refine and improve lead compounds (Tables 8, and 9). SPR interaction analyses for Compounds 1 through 7 were performed with a Biacore 2000, using Biacore2000 Control Software v3.2 and BIAevaluation v4.1 analysis software (Biacore) as described in Mol Cancer Ther 7:2621 (2008). SPR interaction analyses of all other compounds was undertaken using a Biacore T100 with Control and Evaluation software kit.
Consider `COc1ccc(OC)c(-c2cc(C(=O)O)c3nc(C)[nH]c3n2)c1` [Compound 34], for which the “AKT KD” value is “Bound”.
Still for that read-out and setting: as for `Cc1c(Cl)ccc2c(C(=O)O)cc(-c3cccnc3)nc12` [Compound 64], the entry is “Bound”; as for `Nc1cccc(-c2cc(C(=O)O)c3cc(Cl)ccc3n2)c1` [Compound 66], “Bound”; as for `O=C(O)CCc1ccc(-c2ccc(Br)cc2)n1CCC(=O)O` [Compound 67], “Bound”.

The experiment is the same for the next values; noted with them: Table 8.
`COc1c(/C=C/C(=O)O)cc(NS(=O)(=O)c2cccs2)c2c1OCO2` [Compound 84, (E)-3-(4-methoxy-7-(thiophene-2-sulfonamido)benzo[d][1,3]dioxol-5-yl)acrylic acid]: the “AKT KD” value was “No binding”.

A further experiment concerns A549 (KRAS mutant cell line). As to the kind of experiment: Proliferation Assay A549. To be noted: Homo sapiens, N = 2 experiments. The class given is cell-based. As for the experimental part:
(§2) The isogenic KRAS lines harboring G12D, G12C, and G12V were obtained from Horizon Discovery labs on a one year lease. These cells were cultured in McCoys media with 10% FBS to 80% confluency. Cells were then released from flasks via trypsinization and plated into 96-well plates at an initial density range of 2000 cells per well. Cells were allowed 24 hours to attach, and then the agents were added to the culture media at a range of concentrations from 0-100 μM. Cells were incubated for 72 hours with the drugs, and then viability was assessed using an MTS viability assay. Cells were exposed to MTS reagent (Promega) dissolved in PBS (Hyclone) at a concentration of 200 μL reagent/mL media for 2 hours. Absorbance was then read at 490 nm, and viability was expressed as a percentage normalized between the negative control (no cells plated) and the condition of cells with no drug added (100% viability) normalized as the upper limit of viability.
(§3) Our panel of 30 cell lines and an extensive characterization were obtained from Dr. John Minna (UTSW). All cell lines were cultured in RPMI 1640 with 10% FBS. Cells were treated with concentrations of agents at concentrations 0.01 to 50 μM and evaluated as described above. IC50's were determined using Excelfit.
Molecule `COc1c(/C=C/C(=O)O)cc(NS(=O)(=O)c2cccs2)c2c1OCO2` [Compound 84, (E)-3-(4-methoxy-7-(thiophene-2-sulfonamido)benzo[d][1,3]dioxol-5-yl)acrylic acid] returned an IC50 of more than 100 µM.
On the same count and under the same terms, as for `O=C(O)CCc1cc(NS(=O)(=O)c2cccs2)c2c(c1O)OCO2` [Compound 90, 3-(4-hydroxy-7-(thiophene-2-sulfonamido)benzo[d][1,3]dioxol-5-yl)propanoic acid], the figure is more than 100 µM; as for `Cc1ccc(-c2csc(Cn3nc(C4OC5CCOC54)c4ccccc4c3=O)n2)cc1` (stereo not drawn) [Compound 124], 50 µM.
Molecule `Cc1ccc(-c2csc(Cn3nc(CC(O)C[N+](=O)[O-])c4ccccc4c3=O)n2)cc1` (stereo not drawn) [Compound 125] yielded an IC50 of 38 µM.
In the case of `Cc1ccc(-c2csc(Cn3nc(CC(O)CN)c4ccccc4c3=O)n2)cc1` (stereo not drawn) [Compound 126], the IC50 was 27 µM.
On the same count and under the same terms, the same measure for `Cc1ccc(-c2csc(Cn3nc(CC(=O)NS(C)(=O)=O)c4ccccc4c3=O)n2)cc1` [Compound 127]: more than 100 µM.

For another experiment, the system named is H1373 (KRAS mutant cell line). Briefly: Proliferation Assay H1373. The class given is cell-based. To be noted: Homo sapiens, NCI-H1373, N = 2 experiments. As for the experimental part:
as §2, §3
`COc1c(/C=C/C(=O)O)cc(NS(=O)(=O)c2cccs2)c2c1OCO2` [Compound 84, (E)-3-(4-methoxy-7-(thiophene-2-sulfonamido)benzo[d][1,3]dioxol-5-yl)acrylic acid] displayed a half-inhibitory concentration (IC50) of more than 100 µM.
Still for that read-out and setting: as for `O=C(O)CCc1cc(NS(=O)(=O)c2cccs2)c2c(c1O)OCO2` [Compound 90, 3-(4-hydroxy-7-(thiophene-2-sulfonamido)benzo[d][1,3]dioxol-5-yl)propanoic acid], the figure is more than 100 µM; as for `Cc1ccc(-c2csc(Cn3nc(C4OC5CCOC54)c4ccccc4c3=O)n2)cc1` (stereo not drawn) [Compound 124], 50 µM; as for `Cc1ccc(-c2csc(Cn3nc(CC(O)C[N+](=O)[O-])c4ccccc4c3=O)n2)cc1` (stereo not drawn) [Compound 125], 60 µM.
As for `Cc1ccc(-c2csc(Cn3nc(CC(O)CN)c4ccccc4c3=O)n2)cc1` (stereo not drawn) [Compound 126], the IC50 stood at 16 µM.
Regarding `Cc1ccc(-c2csc(Cn3nc(CC(=O)NS(C)(=O)=O)c4ccccc4c3=O)n2)cc1` [Compound 127], the IC50 is more than 100 µM.

The test system of another experiment is H1975 (KRAS wildtype cell line). Briefly: Proliferation Assay H1975. The class given is cell-based. To be noted: Homo sapiens, NCI-H1975, n = 1. How it is done:
as §2, §3
`COc1c(/C=C/C(=O)O)cc(NS(=O)(=O)c2cccs2)c2c1OCO2` [Compound 84, (E)-3-(4-methoxy-7-(thiophene-2-sulfonamido)benzo[d][1,3]dioxol-5-yl)acrylic acid] displayed a 50% inhibitory concentration (IC50) of more than 100 µM.
Same read-out and setting: the same measure for `O=C(O)CCc1cc(NS(=O)(=O)c2cccs2)c2c(c1O)OCO2` [Compound 90, 3-(4-hydroxy-7-(thiophene-2-sulfonamido)benzo[d][1,3]dioxol-5-yl)propanoic acid]: more than 100 µM; for `Cc1ccc(-c2csc(Cn3nc(C4OC5CCOC54)c4ccccc4c3=O)n2)cc1` (stereo not drawn) [Compound 124]: more than 100 µM; for `Cc1ccc(-c2csc(Cn3nc(CC(O)C[N+](=O)[O-])c4ccccc4c3=O)n2)cc1` (stereo not drawn) [Compound 125]: 40 µM.
For `Cc1ccc(-c2csc(Cn3nc(CC(O)CN)c4ccccc4c3=O)n2)cc1` (stereo not drawn) [Compound 126], the IC50 was found to be 27 µM.
In the case of `Cc1ccc(-c2csc(Cn3nc(CC(=O)NS(C)(=O)=O)c4ccccc4c3=O)n2)cc1` [Compound 127], the IC50 is more than 100 µM.

The next experiment deals with H226 (KRAS wildtype cell line). Briefly: Proliferation Assay H226. The class given is cell-based. To be noted: Homo sapiens, NCI-H226, n = 1. How it is done:
as §2, §3
Molecule `COc1c(/C=C/C(=O)O)cc(NS(=O)(=O)c2cccs2)c2c1OCO2` [Compound 84, (E)-3-(4-methoxy-7-(thiophene-2-sulfonamido)benzo[d][1,3]dioxol-5-yl)acrylic acid] displayed an IC50 of more than 100 µM.
On the same count and under the same terms, the same measure for `O=C(O)CCc1cc(NS(=O)(=O)c2cccs2)c2c(c1O)OCO2` [Compound 90, 3-(4-hydroxy-7-(thiophene-2-sulfonamido)benzo[d][1,3]dioxol-5-yl)propanoic acid]: more than 100 µM.
Still for that read-out and setting: as for `Cc1ccc(-c2csc(Cn3nc(C4OC5CCOC54)c4ccccc4c3=O)n2)cc1` (stereo not drawn) [Compound 124], the figure is 95 µM; as for `Cc1ccc(-c2csc(Cn3nc(CC(O)C[N+](=O)[O-])c4ccccc4c3=O)n2)cc1` (stereo not drawn) [Compound 125], 65 µM; as for `Cc1ccc(-c2csc(Cn3nc(CC(O)CN)c4ccccc4c3=O)n2)cc1` (stereo not drawn) [Compound 126], 19 µM.
On the same count and under the same terms, the same measure for `Cc1ccc(-c2csc(Cn3nc(CC(=O)NS(C)(=O)=O)c4ccccc4c3=O)n2)cc1` [Compound 127]: more than 100 µM.
